Assays:
SGLT2 = SGLT2 (Homo sapiens (Human), UniProt P31639); experiment: Activity assay of SGLT2: [14C] methyl α-D-glucopyranoside uptake in SGLT2 transiently transferred HEK293 cells; format: cell-based; conditions: 2 hours at 37° C.
Protocol: (§1) Activity Assay of SGLT1 and SGLT2:
(§2) The following method was used to determine the inhibitory activity of the compounds of the present invention on SGLT1 and SGLT2. The experimental method is summarized as follows:
(§3) SGLT1 and SGLT2 transiently transferred HEK293 cells (prepared according to the existing literature “Diabetes, 57, 1723-1729, 2008”, wherein cDNA of SGLT1 and SGLT2 was purchased from Origene company) were seeded in a 96-well plate. The density of the cells was 1-1.5×10^4. The cells were cultured at 37° C. and 5% CO2 for 48 hours, and then washed twice with 200 μL sodium-free buffer. 90 μL sodium-containing buffer of the test compound at different concentrations was added to the well. Each test compound was repeated in three wells for each concentration. The cells were cultured at 37° C. for 15 minutes, then 10 μL (in number 0.1 μCi [^14C]) Methyl α-D-glucopyranoside was added to each well of the 96-well plate. The cells were further cultured at 37° C. for 2 hours, then the supernatant was discarded. The cells were washed twice with pre-chilled sodium-free buffer and then dissolved in 100 μL NaOH (200 mM). 100 μL scintillation solution was added, and mixed well. Scintiloscope was used for the quantitative detection of ^14C.
(§4) IC50 values of the compounds of various examples were calculated from the […] at different concentrations.

SGLT1 = SGLT1 (Homo sapiens (Human), UniProt P13866); experiment: Activity assay of SGLT1: [14C] methyl α-D-glucopyranoside uptake in SGLT1 transiently transferred HEK293 cells; format: cell-based; conditions: for IC50: SGLT1 transiently transferred HEK293 cells, [14C] methyl α-D-glucopyranoside, 2 hours at 37° C.; for inhibition of SGLT1 (conclusion in words): conclusion from the IC50 table
Chain of SGLT1 (P13866 whole entry, species assumed): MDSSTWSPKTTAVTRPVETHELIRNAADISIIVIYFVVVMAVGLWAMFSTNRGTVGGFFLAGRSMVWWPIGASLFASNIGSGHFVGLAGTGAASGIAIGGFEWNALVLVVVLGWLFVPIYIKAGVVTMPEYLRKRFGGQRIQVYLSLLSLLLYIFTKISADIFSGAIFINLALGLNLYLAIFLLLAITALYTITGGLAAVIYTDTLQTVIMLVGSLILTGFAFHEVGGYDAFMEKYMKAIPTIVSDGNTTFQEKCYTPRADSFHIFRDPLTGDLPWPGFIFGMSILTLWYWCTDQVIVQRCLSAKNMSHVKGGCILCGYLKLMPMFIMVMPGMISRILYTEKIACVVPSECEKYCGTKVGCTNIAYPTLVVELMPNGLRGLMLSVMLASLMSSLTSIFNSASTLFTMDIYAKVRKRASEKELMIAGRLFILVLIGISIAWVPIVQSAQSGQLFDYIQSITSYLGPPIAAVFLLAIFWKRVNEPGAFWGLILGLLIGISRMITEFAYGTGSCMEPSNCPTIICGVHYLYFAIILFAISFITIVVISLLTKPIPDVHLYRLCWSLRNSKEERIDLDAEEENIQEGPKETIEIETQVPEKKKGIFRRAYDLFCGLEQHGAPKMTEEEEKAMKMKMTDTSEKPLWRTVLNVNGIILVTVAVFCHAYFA
Protocol: as §1, §2, §3, §4

Chain of SGLT2 (P31639 whole entry, species assumed): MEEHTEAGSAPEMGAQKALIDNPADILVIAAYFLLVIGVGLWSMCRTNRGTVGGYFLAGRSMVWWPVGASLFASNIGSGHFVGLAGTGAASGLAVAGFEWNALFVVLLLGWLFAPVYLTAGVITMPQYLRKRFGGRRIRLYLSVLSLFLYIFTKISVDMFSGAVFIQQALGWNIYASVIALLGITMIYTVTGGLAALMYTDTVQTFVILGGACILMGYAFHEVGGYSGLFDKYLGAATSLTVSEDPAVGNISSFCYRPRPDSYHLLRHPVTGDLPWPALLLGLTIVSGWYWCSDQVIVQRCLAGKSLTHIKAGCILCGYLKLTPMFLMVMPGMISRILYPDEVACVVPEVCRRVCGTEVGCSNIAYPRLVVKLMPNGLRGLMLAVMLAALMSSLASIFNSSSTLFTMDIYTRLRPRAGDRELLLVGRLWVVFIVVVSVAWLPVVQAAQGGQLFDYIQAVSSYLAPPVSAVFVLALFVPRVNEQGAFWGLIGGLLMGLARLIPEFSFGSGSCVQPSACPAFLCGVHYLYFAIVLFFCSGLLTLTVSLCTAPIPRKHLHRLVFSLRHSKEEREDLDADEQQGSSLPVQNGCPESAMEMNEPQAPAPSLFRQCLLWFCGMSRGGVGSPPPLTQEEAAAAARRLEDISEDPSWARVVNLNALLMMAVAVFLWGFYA

| Structure (SMILES) | IC50 (SGLT2) | IC50 (SGLT1) | inhibition of SGLT1 (conclusion in words) (SGLT1) |
| --- | --- | --- | --- |
| OC[C@@]12CO[C@@](c3ccc(Cl)c(Cc4ccc5c(c4)OCCO5)c3)(O1)[C@H](O)[C@@H](O)[C@@H]2O [Example 1, (1S,2S,3S,4R,5S)-5-(4-chloro-3-((2,3-dihydrobenzo[b][1,4]dioxin-6-yl)methyl)phenyl)-1-(hydroxymethyl)-6,8-dioxabicyclo[3.2.1]octane-2,3,4-triol] | 0.58 nM | 953 nM |  |
| OC[C@@]12CO[C@@](c3ccc(C4CC4)c(Cc4ccc5c(c4)OCCO5)c3)(O1)[C@H](O)[C@@H](O)[C@@H]2O [Example 2, (1S,2S,3S,4R,5S)-5-(4-cyclopropyl-3-((2,3-dihydrobenzo[b][1,4]dioxin-6-yl)methyl)phenyl)-1-(hydroxymethyl)-6,8-dioxabicyclo[3.2.1]octane-2,3,4-triol] | 3.67 nM | 15.7 nM | inhibited SGLT1 |
| OC[C@H]1S[C@@H](c2cc3c(c(Cc4ccc5c(c4)OCCO5)c2)OCC3)[C@H](O)[C@@H](O)[C@@H]1O [Example 3, (2S,3R,4R,5S,6R)-2-(7-((2,3-dihydrobenzo[b][1,4]dioxin-6-yl)methyl)-2,3-dihydrobenzofuran-5-yl)-6-(hydroxymethyl)tetrahydro-2H-thiopyran-3,4,5-triol] | 19.8 nM | 2560 nM |  |
| Cc1ccc([C@@H]2S[C@H](CO)[C@@H](O)[C@H](O)[C@H]2O)cc1Cc1ccc2c(c1)OCCO2 [Example 4, (2S,3R,4R,5S,6R)-2-(3-((2,3-dihydrobenzo[b][1,4]dioxin-6-yl)methyl)-4-methylphenyl)-6-(hydroxymethyl)tetrahydro-2H-thiopyran-3,4,5-triol] | 132 nM | 89 nM | inhibited SGLT1 |
| CCCc1ccc([C@]23OC[C@](CO)(O2)[C@@H](O)[C@H](O)[C@H]3O)cc1Cc1ccc2c(c1)OCCO2 [Example 7, (1S,2S,3S,4R,5S)-5-(3-((2,3-dihydrobenzo[b][1,4]dioxin-6-yl)methyl)-4-propylphenyl)-1-(hydroxymethyl)-6,8-dioxabicyclo[3.2.1]octane-2,3,4-triol] | 1.82 nM | 17.2 nM | inhibited SGLT1 |
| Cc1ccc([C@]23OC[C@](CO)(O2)[C@@H](O)[C@H](O)[C@H]3O)cc1Cc1ccc2c(c1)OCCO2 [Example 8, (1S,2S,3S,4R,5S)-5-(3-((2,3-dihydrobenzo[b][1,4]dioxin-6-yl)methyl)-4-methylphenyl)-1-(hydroxymethyl)-6,8-dioxabicyclo[3.2.1]octane-2,3,4-triol] | 583 nM | 1.21 nM |  |
| CCc1ccc([C@]23OC[C@](CO)(O2)[C@@H](O)[C@H](O)[C@H]3O)cc1Cc1ccc2c(c1)OCCO2 [Example 9, (1S,2S,3S,4R,5S)-5-(3-((2,3-dihydrobenzo[b][1,4]dioxin-6-yl)methyl)-4-ethylphenyl)-1-(hydroxymethyl)-6,8-dioxabicyclo[3.2.1]octane-2,3,4-triol] | 1.49 nM | 16.6 nM | inhibited SGLT1 |
